The assay deals with T1, human PAH with the R408W mutation (Homo sapiens, UniProt P00439, R408W).
T1 construct: expressed in transfected cells
T1 sequence (P00439 1-452 R408W): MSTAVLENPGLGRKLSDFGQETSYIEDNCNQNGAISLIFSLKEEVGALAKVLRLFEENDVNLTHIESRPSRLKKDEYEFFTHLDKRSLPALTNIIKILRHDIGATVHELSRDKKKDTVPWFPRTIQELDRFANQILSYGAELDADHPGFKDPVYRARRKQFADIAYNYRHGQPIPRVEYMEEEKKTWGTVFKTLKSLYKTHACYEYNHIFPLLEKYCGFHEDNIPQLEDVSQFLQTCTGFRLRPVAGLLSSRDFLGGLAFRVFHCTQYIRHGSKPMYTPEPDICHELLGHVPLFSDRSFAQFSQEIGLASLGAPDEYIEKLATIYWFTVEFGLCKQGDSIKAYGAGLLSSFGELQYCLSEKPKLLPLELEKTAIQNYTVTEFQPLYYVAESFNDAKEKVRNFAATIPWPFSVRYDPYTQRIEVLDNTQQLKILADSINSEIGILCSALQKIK
As to the kind of experiment: Cell Based Phenylalanine Flux Assay. As to conditions: A375 cells expressing human R408W PAH; 24 hrs compound incubation; 13C-Tyrosine by LC-MS; average where tested multiple times; read-out: AC50.

Structures are written as SMILES.

A word on the AC50: it is the concentration at which the activity in the assay is half-maximal.

Turning to `O=C(CC1CC1)N1CCc2[nH]cnc2[C@H]1c1nc2cccc(F)c2s1` [Example 1257, (S)-2-cyclopropyl-1-(4-(7-fluorobenzo[d]thiazol-2-yl)-6,7-dihydro-1H-imidazo[4,5-c]pyridin-5(4H)-yl)ethanone], the AC50 is below 0.5 µM.
Next, `O=C(CC1CC1)N1CCc2[nH]cnc2[C@@H]1c1nc2cccc(F)c2s1` [Example 1258, (R)-2-cyclopropyl-1-(4-(7-fluorobenzo[d]thiazol-2-yl)-6,7-dihydro-1H-imidazo[4,5-c]pyridin-5(4H)-yl)ethanone]: 0.5 to 1 µM.
Turning to `O=C(C1CC1)N1CCc2[nH]cnc2[C@H]1c1nc2cccc(F)c2s1` [Example 1259, (S)-cyclopropyl(4-(7-fluorobenzo[d]thiazol-2-yl)-6,7-dihydro-1H-imidazo[4,5-c]pyridin-5(4H)-yl)methanone], the AC50 was in the range of 0.5 to 1 µM.
The same measure for `O=C(C1CC1)N1CCc2[nH]cnc2[C@@H]1c1nc2cccc(F)c2s1` [Example 1260, (R)-cyclopropyl(4-(7-fluorobenzo[d]thiazol-2-yl)-6,7-dihydro-1H-imidazo[4,5-c]pyridin-5(4H)-yl)methanone]: above 5 µM; for `O=C(c1ncc(Cl)s1)N1CCc2[nH]cnc2[C@H]1c1nc2cc(F)ccc2s1` [Example 1261]: 1 to 5 µM; for `O=C(c1ncc(Cl)s1)N1CCc2[nH]cnc2[C@@H]1c1nc2cc(F)ccc2s1` [Example 1262, (R)-(5-chlorothiazol-2-yl)(4-(5-fluorobenzo[d]thiazol-2-yl)-6,7-dihydro-1H-imidazo[4,5-c]pyridin-5(4H)-yl)methanone]: 1 to 5 µM.
Turning to `O=C(c1nc(Cl)cs1)N1CCc2[nH]cnc2[C@H]1c1nc2cccc(F)c2s1` [Example 1263], the AC50 lay in the range of 1 to 5 µM.
For the compound `O=C(c1nc(Cl)cs1)N1CCc2[nH]cnc2[C@@H]1c1nc2cccc(F)c2s1` [Example 1264, (R)-(4-chlorothiazol-2-yl)(4-(7-fluorobenzo[d]thiazol-2-yl)-6,7-dihydro-1H-imidazo[4,5-c]pyridin-5(4H)-yl)methanone], the AC50 was in the range of 1 to 5 µM.
With `O=C(c1nncs1)N1CCc2[nH]cnc2[C@@H]1c1nc2cccc(F)c2s1` [Example 1265, (R)-(4-(7-fluorobenzo[d]thiazol-2-yl)-6,7-dihydro-1H-imidazo[4,5-c]pyridin-5(4H)-yl)(1,3,4-thiadiazol-2-yl)methanone], the half-maximal activity concentration (AC50) fell in the range of 1 to 5 µM.
Regarding `O=C(c1nncs1)N1CCc2[nH]cnc2[C@H]1c1nc2cccc(F)c2s1` [Example 1266, (S)-(4-(7-fluorobenzo[d]thiazol-2-yl)-6,7-dihydro-1H-imidazo[4,5-c]pyridin-5(4H)-yl)(1,3,4-thiadiazol-2-yl)methanone], the AC50 is below 0.5 µM.
Next, `O=C(c1ncn2ccccc12)N1CCc2[nH]cnc2[C@@H]1c1nc2cccc(F)c2s1` [Example 1267, (R)-(4-(7-fluorobenzo[d]thiazol-2-yl)-6,7-dihydro-1H-imidazo[4,5-c]pyridin-5(4H)-yl)(imidazo[1,5-a]pyridin-1-yl)methanone]: 1 to 5 µM.
As to `O=C(c1ncn2ccccc12)N1CCc2[nH]cnc2[C@H]1c1nc2cccc(F)c2s1` [Example 1268, (S)-(4-(7-fluorobenzo[d]thiazol-2-yl)-6,7-dihydro-1H-imidazo[4,5-c]pyridin-5(4H)-yl)(imidazo[1,5-a]pyridin-1-yl)methanone], the AC50 was below 0.5 µM.
Turning to `O=C(c1nncs1)N1CCc2[nH]cnc2[C@@H]1c1nc2c(F)cccc2s1` [Example 1269, (R)-(4-(4-fluorobenzo[d]thiazol-2-yl)-6,7-dihydro-1H-imidazo[4,5-c]pyridin-5(4H)-yl)(1,3,4-thiadiazol-2-yl)methanone], the AC50 is 1 to 5 µM.
Take `O=C(c1nncs1)N1CCc2[nH]cnc2[C@H]1c1nc2c(F)cccc2s1` [Example 1270, (S)-(4-(4-fluorobenzo[d]thiazol-2-yl)-6,7-dihydro-1H-imidazo[4,5-c]pyridin-5(4H)-yl)(1,3,4-thiadiazol-2-yl)methanone]: the AC50 was 0.5 to 1 µM.
Next, `O=C(CC1CC1(F)F)N1CCc2[nH]cnc2[C@@H]1c1nc2ccccc2s1` (stereo partly drawn) [Example 1272, 1-((R)-4-(benzo[d]thiazol-2-yl)-6,7-dihydro-1H-imidazo[4,5-c]pyridin-5(4H)-yl)-2-(2,2-difluorocyclopropyl)ethenone]: above 5 µM; `O=C(CC1CC1(F)F)N1CCc2[nH]cnc2[C@@H]1c1nc2ccccc2s1` (stereo partly drawn) [Example 1273, 1-((R)-4-(benzo[d]thiazol-2-yl)-6,7-dihydro-1H-imidazo[4,5-c]pyridin-5(4H)-yl)-2-(2,2-difluorocyclopropyl)ethanone]: above 5 µM.
Next, `c1ccc2sc([C@H]3c4nc[nH]c4CCN3CCC3CC3)nc2c1` [Example 1275, (R)-2-(5-(2-cyclopropylethyl)-4,5,6,7-tetrahydro-1H-imidazo[4,5-c]pyridin-4-yl)benzo[d]thiazole]: 1 to 5 µM; `c1ccc2sc([C@@H]3c4nc[nH]c4CCN3CCC3CC3)nc2c1` [Example 1276, (S)-2-(5-(2-cyclopropylethyl)-4,5,6,7-tetrahydro-1H-imidazo[4,5-c]pyridin-4-yl)benzo[d]thiazole]: below 0.5 µM; `O=C(CC1CC(F)(F)C1)N1CCc2[nH]cnc2[C@H]1c1nc2ccccc2s1` [Example 1277]: below 0.5 µM.
The same measure for `O=C(CC1CC(F)(F)C1)N1CCc2[nH]cnc2[C@@H]1c1nc2ccccc2s1` [Example 1278, (R)-1-(4-(benzo[d]thiazol-2-yl)-6,7-dihydro-1H-imidazo[4,5-c]pyridin-5(4H)-yl)-2-(3,3-difluorocyclobutyl)ethanone]: 1 to 5 µM.
With `O=C(c1ncco1)N1CCc2[nH]cnc2[C@H]1c1nc2cccc(F)c2s1` [Example 1279, (S)-(4-(7-fluorobenzo[d]thiazol-2-yl)-6,7-dihydro-1H-imidazo[4,5-c]pyridin-5(4H)-yl)(oxazol-2-yl)methanone], the AC50 was 1 to 5 µM.
On to `O=C(c1ncco1)N1CCc2[nH]cnc2[C@@H]1c1nc2cccc(F)c2s1` [Example 1280, (R)-(4-(7-fluorobenzo[d]thiazol-2-yl)-6,7-dihydro-1H-imidazo[4,5-c]pyridin-5(4H)-yl)(oxazol-2-yl)methanone], for which the AC50 lay in the range of 1 to 5 µM.
Next, `O=C(c1cnn2ccc(Br)cc12)N1CCc2[nH]cnc2[C@H]1c1nc2cc(F)ccc2s1` [Example 1281]: 0.5 to 1 µM; `O=C(c1cnn2ccc(Br)cc12)N1CCc2[nH]cnc2[C@@H]1c1nc2cc(F)ccc2s1` [Example 1282, (R)-(5-bromopyrazolo [1,5-a]pyridin-3-yl)(4-(5-fluorobenzo[d]thiazol-2-yl)-6,7-dihydro-1H-imidazo[4,5-c]pyridin-5(4H)-yl)methanone]: 1 to 5 µM; `O=C(c1cnn2ccc(Br)cc12)N1CCc2[nH]cnc2[C@H]1c1nc2cccc(F)c2s1` [Example 1283]: below 0.5 µM.
The same measure for `O=C(c1cnn2ccc(Br)cc12)N1CCc2[nH]cnc2[C@@H]1c1nc2cccc(F)c2s1` [Example 1284, (R)-(5-bromopyrazolo[1,5-a]pyridin-3-yl)(4-(7-fluorobenzo[d]thiazol-2-yl)-6,7-dihydro-1H-imidazo[4,5-c]pyridin-5(4H)-yl)methanone]: 1 to 5 µM.
The same measure for `Cc1ccc2sc([C@@H]3c4nc[nH]c4CCN3C(=O)c3cncs3)nc2c1` [Example 1293, (S)-(4-(5-methylbenzo[d]thiazol-2-yl)-6,7-dihydro-1H-imidazo[4,5-c]pyridin-5(4H)-yl)(thiazol-5-yl)methanone]: 0.5 to 1 µM; for `Cc1ccc2sc([C@H]3c4nc[nH]c4CCN3C(=O)c3cncs3)nc2c1` [Example 1294, (R)-(4-(5-methylbenzo[d]thiazol-2-yl)-6,7-dihydro-1H-imidazo[4,5-c]pyridin-5(4H)-yl)(thiazol-5-yl)methanone]: 1 to 5 µM; for `Cc1ccc2c(C(=O)N3CCc4[nH]cnc4[C@H]3c3nc4c(C)cccc4s3)cnn2c1` [Example 1295, (S)-(4-(4-methylbenzo[d]thiazol-2-yl)-6,7-dihydro-1H-imidazo[4,5-c]pyridin-5(4H)-yl)(6-methylpyrazolo[1,5-a]pyridin-3-yl)methanone]: 0.5 to 1 µM.
In the case of `Cc1ccc2c(C(=O)N3CCc4[nH]cnc4[C@@H]3c3nc4c(C)cccc4s3)cnn2c1` [Example 1296, (R)-(4-(4-methylbenzo[d]thiazol-2-yl)-6,7-dihydro-1H-imidazo[4,5-c]pyridin-5(4H)-yl)(6-methylpyrazolo[1,5-a]pyridin-3-yl)methanone], the AC50 is 1 to 5 µM.
In the case of `O=C(c1nc(Cl)cs1)N1CCc2[nH]cnc2[C@H]1c1nc2cc(F)ccc2s1` [Example 1297], the AC50 is 0.5 to 1 µM.
`O=C(c1nc(Cl)cs1)N1CCc2[nH]cnc2[C@@H]1c1nc2cc(F)ccc2s1` [Example 1298, (R)-(4-chlorothiazol-2-yl)(4-(5-fluorobenzo[d]thiazol-2-yl)-6,7-dihydro-1H-imidazo[4,5-c]pyridin-5(4H)-yl)methanone]: the AC50 lay in the range of 1 to 5 µM.
Next, `O=C(c1nncs1)N1CCc2[nH]cnc2[C@H]1c1nc2cc(F)ccc2s1` [Example 1299, (S)-(4-(5-fluorobenzo[d]thiazol-2-yl)-6,7-dihydro-1H-imidazo[4,5-c]pyridin-5(4H)-yl)(1,3,4-thiadiazol-2-yl)methanone]: 1 to 5 µM.

Source of the values: patent US20250171438A1 (Agios Pharmaceuticals, Inc., priority 2022, published 2025).
